Results on seven molecules are retold here after patent publication US20080027044A1, “Prodrug antibiotic screens” (priority 2006, published 2008).

Converted amounts (≈) assume the structure as drawn.

The test system of data set [1] is E. coli K12 Δactivating enzyme. Nature of the data set: MIC, broth microdilution, strains deleted in activating enzyme. The conditions noted are these: anaerobic conditions. The class given is cell-based. How it is done:
(§1) Cells were tested in a standard broth microdilution assay, inoculating 10^5 cells per well of a microtiter plate in LB broth. Overexpression and deletion strains were compared to the appropriate isogenic wild type. IPTG was added at 1 mM to growth medium. Experiments involving nfnB and nfsA strains were performed under anaerobic conditions.
A general note: Dilution methods test growth across graded concentrations, often in twofold steps.

Data set [2] relates to E. coli K12 ΔtolC overexpressing activating enzyme. Kind of data set: MIC, broth microdilution, tolC deletion strains (MDR efflux test). The class given is cell-based.
Text: Prodrugs are activated by activating enzymes into reactive molecules that bind to their targets, creating an irreversible sink. This may lead to insensitivity of the overall process to MDR efflux. In order to test this possibility, an E. coli K12 with a deletion in tolC coding for the outer membrane porin that is a component of the transenvelope MDRs was utilized (Li, X. Z et al. (2004) Drugs 64:159-204). This strain is highly sensitive to antibiotics (Tegos et al. (2002) Antimicrob. Agents Chemother. 46:3133-3141). […] The substrate specificity of AcrAB is remarkably broad, and includes essentially all small molecular weight amphipathic compounds. The AcrAB substrates include anions (SDS, fatty acids, bile acids), neutral compounds (macrolides, chloramphenicol, tetracyclines) and cations or compounds that can form cations (acridine, quaternary compound antiseptics, fluoroquinolones). AcrAB can extrude the best natural broad spectrum antibiotics that evolved for good penetration —chloramphenicol and tetracycline; and extrude the best synthetic broad-spectrums, the fluoroquinolones. Indeed, amphipathic antimicrobials that are not an AcrAB substrate are not known.
as §1

For data set [3], the system named is E. coli K12 overexpressing activating enzyme. Nature of the data set: MIC, broth microdilution, strains overexpressing activating enzyme. The note with it: for MIC: 1 mM IPTG; for susceptibility of strains overexpressing the corresponding activating enzymes: in words. In kind it is cell-based.
Text: Next, the hits that verify and have reduced activity compared to wild type or no activity against strains deleted in a known or putative enzyme are validated. The rationale is to test the hit against a strain overexpressing the putative activating enzyme. Strains overexpressing activating enzymes have considerably higher susceptibility to prodrugs. It is important to note that conventional antibiotics that inhibit specific targets have increased activity against strains with diminished expression of the target, and decreased activity if the target is overproduced (Schmid, M. B. (2001) New targets and strategies for identification of novel classes of antibiotics. In Antibiotic Development and Resistance. Hughes, D. and Andersson, D. I. (eds). New York: Taylor and Francis, pp. 197-208; Sun, D.e.a. (2001) In 41st Interscience Conference on Antimicrobial Agents and Chemotherapy Chicago: ASM, pp. 77). A prodrug hit has higher activity against a strain overexpressing an activating enzyme, and lower activity against a strain lacking/diminished in an activating enzyme. This behavior of a prodrug hit is the exact opposite from what one expects from a specific antibiotic, and will provide for an excellent preliminary validation of prodrugs. This validation is facilitated by the availability of the ASKA library of E. coli strains overexpressing all known ORFs. The University of Nagoya freely distributes this resource (Saka et al. (2005) DNA Res. 12:63-68). The library contains 4,382 individual E. coli K12 W3110 clones, each carrying a single ORF cloned in an expression vector pCA24N under a pT5/lac promoter. The N-termini carry a his-tag linked to the ORF by a 7 amino acid spacer. The vector carries a CAM resistance marker and a lacl^q gene for a tight control of IPTG-inducible expression.
(§2) The ASKA strains of interest are validated for functional expression of the enzyme. If the protein is not expressed from a given expression vector the ORF will be recloned. A strain overexpressing the activating enzyme from the ASKA library is then tested with the hit compound. If the hit has greater activity against this overexpressing strain as compared to the wild type, this indicates a prodrug. The test is performed in a standard broth microdilution assay for MIC determination. Hits with the lowest wild type MIC are then focused on.
as §1

In the next data set the test system is E. coli K12 wt. Nature of the data set: MIC, standard broth microdilution assay, wild type. The conditions noted are these: in words; all strains tested. In kind it is cell-based. How it is done:
as §2, §1

The subject of a further data set is P. aeruginosa. Kind of data set: Killing of logarithmic, stationary and biofilm cultures by bactericidal antimicrobials (colony count). The note with it: in words. The class given is cell-based. How it is done: Persister cells in planktonic and biofilm populations are characterized for their antibiotic sensitivity in this example. Several bactericidal antimicrobials were chosen to test the resistance of P. aeruginosa to killing—ofloxacin, a fluoroquinolone; tobramycin, an aminoglycoside; carbenicillin, a β-lactam; and peracetic acid, a disinfectant oxidant (Spoering et al. (2001) J. Bacteriol. 183:6746-6751). Biofilms were grown essentially by the method of Ceri (Ceri et al. (1999) J. Clin. Microbiol. 37:1771-1776) and as described in Brooun et al. (2000) Antimicrob. Agents Chemother. 44:640-646. The device used for biofilm formation is a platform carrying 96 polystyrene pegs that fit in a microtiter plate. Preformed biofilms were incubated in the presence of an antimicrobial agent, and survival was measured after disrupting the biofilms by colony count.
Carbenicillin is a bactericidal antibiotic that, similarly to most β-lactams, only kills rapidly growing cells (Tuomanen et al. (1986) Scand. J. Gastroenterol. Suppl:10-14). Logarithmic state, stationary and biofilm cultures were challenged with carbenicillin.
Unlike carbenicillin, ofloxacin can kill non-growing cells (Brooun et al. (2000) Antimicrob. Agents Chemother. 44:640-646). […] After a 6 hours incubation time with the antibiotic, viability was determined by colony count. […]

The conditions of data set [4]: Schulz et al. (1997); cited from earlier work.
Where [5] appears, read: E. coli K12 ΔtolC nfnB+ (overexpressing), anaerobic conditions.
[6] abbreviates: E. coli K12 ΔtolC nfsA+ (overexpressing), anaerobic conditions.
Where [7] appears, read: E. coli K12 nfnB+ (overexpressing), anaerobic conditions.
The mark [8] stands for this setting: E. coli K12 nfsA+ (overexpressing), anaerobic conditions.

On to `NC(=O)c1cc([N+](=O)[O-])cc([N+](=O)[O-])c1` [3,5-Dinitrobenzamide], for which the minimum inhibitory concentration (MIC) (in general, the least concentration at which growth counts as inhibited) in data set [1] (E. coli K12 nfnB− (deleted)) is above 500 µg/mL; in data set [1] (E. coli K12 nfsA− (deleted)), above 500 µg/mL; in data set [2] (setting [5]), 15.6 µg/mL (≈ 73.9 µM); in data set [2] (setting [6]), 7.8 µg/mL (≈ 36.9 µM); in data set [3] (setting [7]), 15.6 µg/mL (≈ 73.9 µM); in data set [3] (setting [8]), 7.8 µg/mL (≈ 36.9 µM). Besides, the “susceptibility of strains overexpressing the corresponding activating enzymes” value in data set [3] was “significantly increased susceptibilities”.
For `Nc1nc(O)ncc1F` [5-fluorocytosine, 5-Fluorocytosine], in the data set with E. coli K12 wt, the “activity against any strains tested” value was “little activity”.
`NC(=O)c1cc(N2CC2)c([N+](=O)[O-])cc1[N+](=O)[O-]` [Dinitroaziridinylbenzamide (CB1954), Dinitroaziridinylbenzamide]: the minimum inhibitory concentration (MIC) in data set [2] (setting [5]) came out at 3.3 µg/mL (≈ 13.1 µM); in data set [2] (setting [6]), 6.3 µg/mL (≈ 25 µM); in data set [3] (setting [7]) it was 3.3 µg/mL (≈ 13.1 µM); in data set [3] (setting [8]), 6.3 µg/mL (≈ 25 µM). Besides, the “susceptibility of strains overexpressing the corresponding activating enzymes” value in data set [3] is recorded as “significantly increased susceptibilities”.
`CC[C@H]1OC(=O)[C@H](C)[C@@H](O[C@H]2C[C@@](C)(OC)[C@@H](O)[C@H](C)O2)[C@H](C)[C@@H](O[C@@H]2O[C@H](C)C[C@H](N(C)C)[C@H]2O)[C@](C)(O)C[C@@H](C)C(=O)[C@H](C)[C@@H](O)[C@]1(C)O` [Erythromycin]: the minimum inhibitory concentration (MIC) was determined as 1.56 µg/mL (≈ 2.13 µM) in data set [2] (E. coli K12 ΔtolC codA+ (overexpressing)); 1.56 µg/mL (≈ 2.13 µM) in data set [2] (E. coli K12 ΔtolC deoD+ (overexpressing)); 1.56 µg/mL (≈ 2.13 µM) in data set [2] (setting [5]); 1.56 µg/mL (≈ 2.13 µM) in data set [2] (setting [6]); 200 µg/mL (≈ 273 µM) in data set [3] (E. coli K12 codA+ (overexpressing)); 200 µg/mL (≈ 273 µM) in data set [3] (E. coli K12 deoD+ (overexpressing)). Also, the minimum inhibitory concentration (MIC) in data set [3] (setting [8]) came out at 200 µg/mL (≈ 273 µM).
On to `CC(=O)OO` [Peracetic acid, peracetic acid], for which the “killing of logarithmic, stationary and biofilm cultures” value in the data set on P. aeruginosa (all three cultures) was “all cultures were sterilized”.
Consider `NC[C@H]1O[C@H](O[C@H]2[C@H](O)[C@@H](O[C@H]3O[C@H](CO)[C@@H](O)[C@H](N)[C@H]3O)[C@H](N)C[C@@H]2N)[C@H](N)C[C@@H]1O` [Tobramycin, tobramycin], for which the “killing of logarithmic cells” value with P. aeruginosa (logarithmic cells) was “no logarithmic persisters were detected”. Also, in data set [4], the clinically achievable concentration is 10 µg/mL.
As to `CC1COc2c(N3CCN(C)CC3)c(F)cc3c(=O)c(C(=O)O)cn1c23` (stereo not drawn) [ofloxacin], the clinically achievable concentration in data set [4] is 5 µg/mL.
